This is an account of results in paper PMC9030932, “Development of Dibenzothiazepine Derivatives as Multifunctional Compounds for Neuropathic Pain” (Pharmaceuticals, 2022).

The structures appear in SMILES notation. Read-outs that look alike come from different tables or passages of the source. Marks after values point to notes of the source that are not given here.

Assay type in all cases: cell-based
Experiment [1] has as its target human dopamine transporter (hDAT) (Homo sapiens, UniProt Q01959). The experiment in a line: Neurotransmitter transporter uptake assay, HEK-hDAT. Conditions: for inhibition at 10 µM: read-out: % Inhibition at 10 μM hDAT.
Experiment [2] addresses human serotonin transporter (hSERT) (Homo sapiens, UniProt P31645). The experiment in a line: Neurotransmitter transporter uptake assay, HEK-hSERT. Conditions: for inhibition at 10 µM: read-out: % Inhibition at 10 μM hSERT.
Experiment [3] concerns the target human norepinephrine transporter (hNET) (Homo sapiens, UniProt P23975). The experiment in a line: Neurotransmitter transporter uptake assay, HEK-hNET. Conditions: read-out: % Inhibition at 10 μM hNET.
Experiment [4] concerns the target T1, human κ-opioid receptor (OPRK1) (Homo sapiens, UniProt P41145).
T1 construct: host or cells: HEK293 (constitutive expression)
The experiment in a line: Intracellular calcium mobilization (FLIPR Tetra), HEK-hKOR agonism. The conditions noted are these: read-out: % Stimulation at 10 μM, OPRK1 Agonism against DynorphinA (370 nM). The procedure: Intracellular calcium mobilization was measured by using FLIPR Tetra System (Molecular Devices, Sunnyvale, CA, USA) in accordance with manufacturer’s instruction. […] Subsequently, the plate was transferred to the FLIPR tetra system for treating 50 μL of the 5× compounds diluted in loading buffer and reading intracellular calcium mobilization. The final concentration of DMSO was 0.1%. […] A dose response curve was generated with the changes in Relative Fluorescence Units (∆RFU) versus Log10 dose.
Experimental details for Biology
Cell culture. HEK293 cells stably expressing human DA transporter (HEK-hDAT), human NE transporter (HEK-hNET) and human serotonin transporter (HEK-hSERT) were kindly provided by Professor Bryan Roth (University of North Carolina at Chapel Hill). And HEK293 cells constitutively expressing human κ- or μ- opioid receptor (HEK-hKOR_NM000912 or HEK-hMOR_NM000914) were constructed by Professor Ki Duk Park (in Korea Institute of Science […]
Europins DiscoveRx (Fremont, CA, USA). Cells were mainta ined in Dulbecco's modified Eagle's medium (HyClone, Logan, UT, USA) supplemented with 10%(v/v) fetal bovine serum (FBS, HyClone, Logan, UT, USA), penicillin (100 U/mL), and streptomycin (100 μg/mL) in the […]
for HEK-hDAT, HEK-hNET, HEK-hSERT, HEK-hKOR and HEK-hMOR respectively) in a humidified 5% CO2 incubator at 37 °C. In case of both HEK-hKOR and HEK-hMOR, cells were additionally maintained in 0.2 mg/mL hygromycin B, 1 μg/mL puromycin B, 1× non-essential amino acids. The cells were subcultured every 3-4 days. […]

For experiment [5], the target named is T2, human μ-opioid receptor (OPRM1) (Homo sapiens, UniProt P35372).
T2 construct: host or cells: HEK293 (constitutive expression)
T2 sequence (P35372 whole entry): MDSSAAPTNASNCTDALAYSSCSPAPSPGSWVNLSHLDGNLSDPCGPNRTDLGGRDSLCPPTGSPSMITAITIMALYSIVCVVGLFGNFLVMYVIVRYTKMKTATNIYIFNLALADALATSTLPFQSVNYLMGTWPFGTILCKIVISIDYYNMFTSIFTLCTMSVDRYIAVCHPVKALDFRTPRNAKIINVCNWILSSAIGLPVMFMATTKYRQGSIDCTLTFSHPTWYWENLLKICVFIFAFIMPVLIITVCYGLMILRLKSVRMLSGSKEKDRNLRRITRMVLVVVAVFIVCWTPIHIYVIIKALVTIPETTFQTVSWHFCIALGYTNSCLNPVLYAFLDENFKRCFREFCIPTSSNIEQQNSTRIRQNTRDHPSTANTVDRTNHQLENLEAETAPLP
The experiment in a line: Intracellular calcium mobilization (FLIPR Tetra), HEK-hMOR agonism. Conditions: for % Stimulation at 10 μM, OPRM1 Agonism against DAMGO (3.9 μM): HEK-hMOR calcium mobilization, normalized to Emax of DAMGO at 3.9 μM. In general terms: A change in cytosolic calcium serves as a functional read-out for many receptors and channels.

For experiment [6], the target named is T3, hOPRM1 receptor (Homo sapiens, UniProt P35372).
T3 construct: host or cells: CHO-K1
T3 sequence (P35372 whole entry): as above
The experiment in a line: PathHunter CHO-K1 OPRM1 β-arrestin recruitment assay. For orientation: Recruitment of arrestin is a read-out of receptor activation apart from second messengers.

Where [7] appears, read: 10 μM, HEK-hSERT, mean ± SEM, n = 3–6.
[8] abbreviates: 10 μM, HEK-hNET, mean ± SEM, n = 3–6.

Chain of human norepinephrine transporter (hNET) (P23975 whole entry): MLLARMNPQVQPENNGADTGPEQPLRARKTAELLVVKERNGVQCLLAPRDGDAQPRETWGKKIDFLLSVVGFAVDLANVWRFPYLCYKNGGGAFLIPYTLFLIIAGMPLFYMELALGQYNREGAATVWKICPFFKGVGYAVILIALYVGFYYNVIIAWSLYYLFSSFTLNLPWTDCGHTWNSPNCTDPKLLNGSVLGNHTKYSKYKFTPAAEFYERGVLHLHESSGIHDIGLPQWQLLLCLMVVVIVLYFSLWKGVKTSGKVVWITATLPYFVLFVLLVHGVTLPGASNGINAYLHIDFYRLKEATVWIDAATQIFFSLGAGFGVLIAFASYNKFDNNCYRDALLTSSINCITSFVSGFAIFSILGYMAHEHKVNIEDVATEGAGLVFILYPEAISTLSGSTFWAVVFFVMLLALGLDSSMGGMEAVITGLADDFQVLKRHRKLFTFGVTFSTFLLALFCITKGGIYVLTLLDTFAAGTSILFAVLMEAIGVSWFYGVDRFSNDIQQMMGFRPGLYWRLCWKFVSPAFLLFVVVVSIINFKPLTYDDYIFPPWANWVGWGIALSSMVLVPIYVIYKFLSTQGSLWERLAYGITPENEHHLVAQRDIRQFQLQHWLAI
Chain of human serotonin transporter (hSERT) (P31645 whole entry): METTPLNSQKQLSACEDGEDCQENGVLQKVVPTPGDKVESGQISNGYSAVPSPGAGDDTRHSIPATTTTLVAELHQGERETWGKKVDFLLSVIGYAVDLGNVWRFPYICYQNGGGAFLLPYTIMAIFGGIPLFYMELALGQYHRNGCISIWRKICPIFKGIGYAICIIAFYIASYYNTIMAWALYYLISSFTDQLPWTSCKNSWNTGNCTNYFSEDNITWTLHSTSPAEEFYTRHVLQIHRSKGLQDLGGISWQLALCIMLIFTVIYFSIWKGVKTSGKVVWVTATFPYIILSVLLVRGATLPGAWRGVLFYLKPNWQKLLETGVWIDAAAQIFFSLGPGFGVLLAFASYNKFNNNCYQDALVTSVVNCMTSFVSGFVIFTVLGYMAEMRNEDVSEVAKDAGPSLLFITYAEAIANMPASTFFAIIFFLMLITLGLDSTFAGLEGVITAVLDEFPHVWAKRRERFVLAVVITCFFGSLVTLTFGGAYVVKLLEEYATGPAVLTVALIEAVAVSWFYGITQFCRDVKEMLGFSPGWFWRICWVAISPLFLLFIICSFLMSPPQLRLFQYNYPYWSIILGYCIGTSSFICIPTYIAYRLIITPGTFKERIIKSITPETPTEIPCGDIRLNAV
T1 sequence (P41145 whole entry): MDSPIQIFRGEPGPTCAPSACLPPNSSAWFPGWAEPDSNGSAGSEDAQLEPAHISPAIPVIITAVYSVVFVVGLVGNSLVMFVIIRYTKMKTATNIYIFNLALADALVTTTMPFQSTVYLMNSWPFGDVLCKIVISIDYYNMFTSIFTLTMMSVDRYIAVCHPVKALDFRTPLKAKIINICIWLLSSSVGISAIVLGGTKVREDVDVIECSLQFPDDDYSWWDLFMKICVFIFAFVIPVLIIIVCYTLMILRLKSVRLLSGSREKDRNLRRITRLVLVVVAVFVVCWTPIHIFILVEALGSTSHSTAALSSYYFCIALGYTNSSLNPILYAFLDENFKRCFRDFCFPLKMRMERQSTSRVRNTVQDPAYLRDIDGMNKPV
Chain of human dopamine transporter (hDAT) (Q01959 whole entry): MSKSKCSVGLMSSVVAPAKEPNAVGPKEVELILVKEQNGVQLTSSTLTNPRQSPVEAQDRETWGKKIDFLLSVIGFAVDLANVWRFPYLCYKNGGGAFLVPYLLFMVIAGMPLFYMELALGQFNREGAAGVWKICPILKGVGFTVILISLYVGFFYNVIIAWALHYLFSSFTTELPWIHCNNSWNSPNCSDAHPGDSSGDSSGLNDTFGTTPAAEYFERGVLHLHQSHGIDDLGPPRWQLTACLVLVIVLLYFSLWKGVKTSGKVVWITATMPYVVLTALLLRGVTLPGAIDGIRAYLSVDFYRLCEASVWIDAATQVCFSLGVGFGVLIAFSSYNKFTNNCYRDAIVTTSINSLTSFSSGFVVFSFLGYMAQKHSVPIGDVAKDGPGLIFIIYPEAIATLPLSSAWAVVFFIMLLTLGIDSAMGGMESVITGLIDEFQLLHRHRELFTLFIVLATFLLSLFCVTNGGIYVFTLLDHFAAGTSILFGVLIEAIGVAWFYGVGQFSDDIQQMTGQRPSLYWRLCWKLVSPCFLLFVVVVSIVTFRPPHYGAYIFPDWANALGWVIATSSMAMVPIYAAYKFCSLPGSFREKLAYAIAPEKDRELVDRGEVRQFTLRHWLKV

Consider `CN1c2ccccc2C(NCCc2c[nH]c3ccc(O)cc23)c2ccc(Cl)cc2S1(=O)=O` (centres unmarked) [Compound 7, 3-chloro-11-((2-(5-hydroxy-1H-indol-3-yl)ethyl)amino)-6-methyl-6,11-dihydrodibenzo[c,f][1,2]thiazepine 5,5-dioxide], for which the inhibition (in general, the change of the read-out against control, counted positive when it falls) at 10 µM in experiment [1] came to 36.2 ± 2.7%; in experiment [2] (setting [7]), 37.5 ± 2.5%; in experiment [3] (setting [8]) it was 30.8 ± 2.8%.

Regarding `CN1c2ccccc2C(NCC(=O)NCCc2c[nH]c3ccc(O)cc23)c2ccc(Cl)cc2S1(=O)=O` (centres unmarked) [Compound 11a, 2-((3-chloro-6-methyl-5,5-dioxido-6,11-dihydrodibenzo[c,f][1,2]thiazepin-11-yl)amino)-N-(2-(5-hydroxy-1H-indol-3-yl)ethyl)acetamide], the inhibition at 10 µM in experiment [1] was determined as 33.2 ± 6.5%; in experiment [2] (setting [7]), 50.9 ± 4.1%; in experiment [3] (setting [8]), 13.2 ± 2.3%.

Take `CN1c2ccccc2C(NCCC(=O)NCCc2c[nH]c3ccc(O)cc23)c2ccc(Cl)cc2S1(=O)=O` (centres unmarked) [Compound 11b, 3-((3-chloro-6-methyl-5,5-dioxido-6,11-dihydrodibenzo[c,f][1,2]thiazepin-11-yl)amino)-N-(2-(5-hydroxy-1H-indol-3-yl)ethyl)propanamide]: the inhibition at 10 µM stood at 44.9 ± 4.2% in experiment [1] and 54.8 ± 3.7% in experiment [3] (setting [8]). Also, it took 4.08 ± 0.032 µM to reach half-maximal inhibition in experiment [2] (IC50).

Regarding `CN1c2ccccc2C(NCCCC(=O)NCCc2c[nH]c3ccc(O)cc23)c2ccc(Cl)cc2S1(=O)=O` (centres unmarked) [Compound 11c, 4-((3-chloro-6-methyl-5,5-dioxido-6,11-dihydrodibenzo[c,f][1,2]thiazepin-11-yl)amino)-N-(2-(5-hydroxy-1H-indol-3-yl)ethyl)butanamide], the inhibition at 10 µM was found to be 41.3 ± 5.7% in experiment [1], 35.5 ± 3.7% in experiment [2] (setting [7]) and 24.3 ± 7.4% in experiment [3] (setting [8]).

For the compound `CN1c2ccccc2C(NCCCCC(=O)NCCc2c[nH]c3ccc(O)cc23)c2ccc(Cl)cc2S1(=O)=O` (centres unmarked) [Compound 11d, 5-((3-chloro-6-methyl-5,5-dioxido-6,11-dihydrodibenzo[c,f][1,2]thiazepin-11-yl)amino)-N-(2-(5-hydroxy-1H-indol-3-yl)ethyl)pentanamide], the inhibition at 10 µM in experiment [1] stood at 41.3 ± 7.6%; in experiment [3] (setting [8]), 21.1 ± 4.7%. For the same compound, in experiment [2] (HEK-hSERT, neurotransmitter uptake, mean ± SEM, n = 3–6, read-out: IC50 hSERT), the IC50 (as a rule, the concentration needed to halve the response being measured) amounted to 10.1 ± 0.5 µM.

Take `CN1c2ccccc2C(NCCCCCC(=O)NCCc2c[nH]c3ccc(O)cc23)c2ccc(Cl)cc2S1(=O)=O` (centres unmarked) [Compound 11e, 6-((3-chloro-6-methyl-5,5-dioxido-6,11-dihydrodibenzo[c,f][1,2]thiazepin-11-yl)amino)-N-(2-(5-hydroxy-1H-indol-3-yl)ethyl)hexanamide]: the inhibition at 10 µM in experiment [1] came out at 40.2 ± 0.12%; in experiment [3] (setting [8]) it was 30.1 ± 5%. Also, the midpoint of inhibition in experiment [2], the IC50, lay at 6.74 ± 0.38 µM.

As to `COc1ccc2[nH]cc(CCNC(=O)CCCCCCNC3c4ccccc4N(C)S(=O)(=O)c4cc(Cl)ccc43)c2c1` (centres unmarked) [Compound 13, 7-((3-chloro-6-methyl-5,5-dioxido-6,11-dihydrodibenzo[c,f][1,2]thiazepin-11-yl)amino)-N-(2-(5-methoxy-1H-indol-3-yl)ethyl)heptanamide], the inhibition at 10 µM was determined as 25.6 ± 9.7% in experiment [1], 39.7 ± 6.3% in experiment [2] (setting [7]) and 23.7 ± 7.5% in experiment [3] (setting [8]).

Regarding `CN1c2ccccc2C(NCCCCCCC(=O)NCCc2c[nH]c3ccccc23)c2ccc(Cl)cc2S1(=O)=O` (centres unmarked) [Compound 14, N-(2-(1H-indol-3-yl)ethyl)-7-((3-chloro-6-methyl-5,5-dioxido-6,11-dihydrodibenzo[c,f][1,2]thiazepin-11-yl)amino)heptanamide], inhibition in experiment [1] was half-maximal at 3.81 ± 1.4 µM (IC50). Besides, the inhibition at 10 µM in experiment [2] (setting [7]) came to 50.3 ± 3.4%; in experiment [3] (setting [8]), 65.2 ± 3.4%. Also, the activation at 10 µM in experiment [4] was less than 10%. Besides, the “% Stimulation at 10 μM, OPRM1 Agonism against DAMGO (3.9 μM)” value (from here on “% Stimulation at 10 μM, OPRM1 Agonism”) in experiment [5] came to 62.3 ± 2.9% ^b. Moreover, the EC50 (as a rule, the concentration giving half of the maximal effect) in experiment [6] came to 0.113 ± 0.003 µM.

For `CN1c2ccccc2C(NCCCCCCCC=CCc2c[nH]c3ccccc23)c2ccc(Cl)cc2S1(=O)=O` (centres unmarked) [Compound 21], the inhibition at 10 µM is 8.92 ± 6.1% in experiment [1], 26.3 ± 6.4% in experiment [2] (setting [7]) and 5.64 ± 4.5% in experiment [3] (setting [8]). The activation at 10 µM in experiment [4] was less than 10%. In experiment [5], the “% Stimulation at 10 μM, OPRM1 Agonism” value is recorded as less than 10% ^b. Further, the half-maximal effective concentration (EC50) in experiment [6] is more than 10 µM.

Take `CN1c2ccccc2C(NCCCCCCCCCCc2c[nH]c3ccccc23)c2ccc(Cl)cc2S1(=O)=O` (centres unmarked) [Compound 22]: the inhibition at 10 µM in experiment [1] is 1.95 ± 0.06%; in experiment [2] (setting [7]) it was 17.9 ± 7.5%; in experiment [3] (setting [8]) it was 5.56 ± 0.07%. In addition, the activation at 10 µM in experiment [4] is less than 10%. Also, the “% Stimulation at 10 μM, OPRM1 Agonism” value in experiment [5] is on record as 11.8 ± 1.9% ^b. In addition, the EC50 in experiment [6] was more than 10 µM.

In the case of `CC(C)C[C@H](CNC(=O)CCCCCCNC1c2ccccc2N(C)S(=O)(=O)c2cc(Cl)ccc21)CC(=O)O` (stereo partly drawn) [Compound 25, (3S)-3-((7-((3-chloro-6-methyl-5,5-dioxido-6,11-dihydrodibenzo[c,f][1,2]thiazepin-11-yl)amino)heptanamido)methyl)-5-methylhexanoic acid], the inhibition at 10 µM in experiment [1] was 17.6 ± 8.9%; in experiment [2] (setting [7]), 11.3 ± 2.5%; in experiment [3] (setting [8]) it was 21 ± 2.6%. In experiment [4], the activation at 10 µM was less than 10%. Further, the concentration for a half-maximal effect (EC50) in experiment [5] is 2.41 ± 0.144 µM; in experiment [6], more than 10 µM.

Take `CN(CCCCCCCNC1c2ccccc2N(C)S(=O)(=O)c2cc(Cl)ccc21)CCC(Oc1ccc(C(F)(F)F)cc1)c1ccccc1` (centres unmarked) [Compound 26, 3-chloro-6-methyl-11-((7-(methyl(3-phenyl-3-(4-(trifluoromethyl)phenoxy)propyl)amino)heptyl)amino)-6,11-dihydrodibenzo[c,f][1,2]thiazepine 5,5-dioxide]: the inhibition at 10 µM in experiment [1] worked out at 23.6 ± 12%; in experiment [3] (setting [8]) it was 7.07 ± 4.1%. Also, in experiment [2], the IC50 turned out to be 2.18 ± 0.37 µM. For the same compound, in experiment [4], the activation at 10 µM is less than 10%. Further, the “% Stimulation at 10 μM, OPRM1 Agonism” value in experiment [5] is reported as less than 10% ^b. The EC50 in experiment [6] was more than 10 µM.

For the compound `CN1c2ccccc2C(NCCCCCCCNCCc2c[nH]c3ccc(C#N)cc23)c2ccc(Cl)cc2S1(=O)=O` (centres unmarked) [Compound 27, 3-(2-((7-((3-chloro-6-methyl-5,5-dioxido-6,11-dihydrodibenzo[c,f][1,2]thiazepin-11-yl)amino)heptyl)amino)ethyl)-1H-indole-5-carbonitrile], the IC50 in experiment [1] turned out to be 4.98 ± 2.1 µM; in experiment [2], 0.462 ± 0.034 µM. The inhibition at 10 µM in experiment [3] (setting [8]) amounted to 63.6 ± 4.4%. For the same compound, the activation at 10 µM in experiment [4] was less than 10%. Besides, the “% Stimulation at 10 μM, OPRM1 Agonism” value in experiment [5] was found to be 65.9 ± 2.8% ^b. In experiment [6], this compound had an EC50 of 3.28 ± 0.642 µM.

With `Fc1ccc(C(OCCN2CCN(CCCc3ccccc3)CC2)c2ccc(F)cc2)cc1` [GBR12909, reference compound], the inhibition at 10 µM is 85.9 ± 0.27% in experiment [1], 70.6 ± 1.3% in experiment [2] and 79.1 ± 0.71% in experiment [3].

Take `CNCCC(Oc1ccccc1OC)c1ccccc1` (centres unmarked) [Nisoxetine, reference compound]: the inhibition at 10 µM in experiment [1] is 79.7 ± 1.4%; in experiment [2], 79.8 ± 0.32%.
